PMC8319882 (Drugs in R&D, 2021)

System: SARS-CoV-2 spike protein binding to ACE2

FLDKFNHNFKDLF [13AApi]
Inhibition of interaction between SARS-CoV-2 spike and immobilized ACE2: Greater than 40%
